Legend:
gp120-CD4 binding = target: T1, gp120-CD4 binding (Human immunodeficiency virus type 1 group M subtype B, UniProt P03375); parameters: species or system HIV-1; settings: 10 μg/ml
T1 construct: purchased Immunodiagnostics, Woburn, Mass; (gp120); Genentech Inc., South San Francisco, Calif; (sCD4)
Protocol: Inhibition of gp120 binding to CD4. Wells of polystyrene plates was coated with 100 μl of sheep anti-gp120 antibody D7324 (Cliniqa, Fallbrook, Calif.) at 2 μg/ml in carbonate buffer (pH 9.6) at 4° C. overnight and blocked with 1% dry fat-free milk in PBS at 37° C. for 1 h. One hundred microliters of recombinant gp120 molecule (Immunodiagnostics, Woburn, Mass.) at 0.5 μg/ml in PBS was added and incubated at 37° C. for 1 h, followed by three washes with PBS-T. Soluble CD4 (sCD4) at 0.25 μg/ml was added in the presence of a compound (25 μM) and incubated at 37° C. for 1 h. After three washes, rabbit anti-sCD4 IgG (0.25 μg/ml in PBS, 100 μl/well) was added and incubated at 37° C. for 1 h. Binding of rabbit anti-sCD4 IgG was determined by sequential addition of biotinylated goat-anti-rabbit IgG, SA-HRP, and TMB. After the reactions were terminated, absorbance at 450 nm was recorded in an ELISA reader (Tecan).
HIV-1 envelope glycoprotein gp120 was captured by the anti-gp120 antibody coated onto wells of polystyrene plates. […] After extensive washes, CD4 molecule bound to gp120 was quantitated by ELISA using anti-CD4 antibody.

CXCR4 = target: T2, CXCR4 (Homo sapiens, UniProt P61073); assay: inhibition of anti-CXCR4 antibody 12G5 binding to CXCR4-expressing cells, cell-based ELISA; settings: 25 μM
T2 construct: expressed in transfected cells; host or cells: U373-MAGI-CXCR4CEM cells
Protocol: Inhibition of anti-CXCR4 antibody binding to CXCR4-expressing cells. The inhibition of the binding of anti-CXCR4 antibody to CXCR4-expressing cells was determined using a cell-based ELISA as described previously (52). Briefly, U373-MAGI-CXCR4CEM cells (1×10^5/well) which express CXCR4 molecules were cultured in a 96-well plate at 37° C. overnight. The cells were fixed with 5% formaldehyde at room temperature for 15 min and washed with PBS-T. The cells were incubated with anti-CXCR4 mAb 12G5 at 37° C. for 1 h in the presence or absence of compounds tested. Isotype IgG2a was used as a control.

HIV-1IIIB [1] = assay: time-of-addition assay; assay type: cell-based; settings: 2.5 μM added 8 hrs post-infection
Protocol: (§1) Assessment of anti-HIV-1 infectivity. […] Reactions were terminated by addition of 1N H2SO4.
MT-2 cells were incubated with HIV-1IIIB at 37° C. for 0, 1, 2, 3, 4, 6, and 8 hrs, respectively, before addition of the test compounds at 10 μg/ml. AZT (2.5 μM) was used as a control. After culture for another 2 hrs, the cells were washed to remove the free virus and compounds. The supernatants were collected on day 4 post-infection for measurement of p24 production.

[2] = system: HIV-1NL4-3 pseudotyped viruses expressing HIV-1SF162 (R5) Env with U87-T4-CCR5 cells; assay: virus-cell fusion, luciferase assay; assay type: cell-based; settings: HIV-1SF162 (R5) Env pseudotyped virus
Protocol: Inhibition of virus-cell fusion. Inhibition of fusion of HIV-1NL4-3 pseudotyped viruses expressing envelope glycoprotein of the HIV-1HXB2 (X4) and HIV-1SF162 (R5) strains with U87-T4-CXCR4 and U87-T4-CCR5 cells, respectively, was measured as previously described (15). Briefly, 100 μl of U87-T4-CXCR4 and U87-T4-CCR5 cells, respectively, at 1×10^5 cells/ml were added to the wells of a 96-well tissue culture plate and cultured at 37° C. overnight. Fifty μl of a test compound at graded concentrations was mixed with 50 μl of the HIV-1NL4-3-luc viruses pseudotyped with the HIV-1HXB2 and HIV-1SF162 Env, prepared as described previously (15), at a final p24 concentration of 0.5 ng/ml in the presence of Polybrene (10 μg/ml). After incubation at 37° C. for 30 min, the mixtures were added to the cells and incubated at 37° C. overnight. The supernatants were removed and fresh culture medium was added. After incubation at 37° C. for 3 days, the cells were washed twice with PBS and lysed with the lysing reagent included in a luciferase assay kit (Promega, Corp., Madison, Wis.). The cell lysates were transferred to a 96-well flat-bottom luminometer plate (Costar, Corning Inc., Corning, N.Y.) and luciferase substrate (Promega) was added. The luciferase activity was measured immediately on a luminometer (Ultra 384, Tecan). The % inhibition and IC50 values were calculated as described above.

[3] = system: H9/HIV-1IIIB cells cocultured with MT-2 cells; assay: syncytium-formation assay for screening HIV-1 fusion inhibitors; assay type: cell-based; settings: single dose 25 μg/ml
Text: Syncytium-formation assay for screening HIV-1 fusion inhibitors. […] HIV-1 induced syncytium formation was observed under an inverted microscope and scored as “−” (no syncytium was observed), “±” (about 50% syncytia were inhibited), and “+” (no syncytium formation was inhibited). The compounds scored with “−” and “±” were selected for further screening by ELISA for inhibitors against the gp41 six-helix bundle formation.

HIV-1IIIB [4] = assay: inhibition of HIV-1IIIB replication (p24 production) in MT-2 cells; assay type: cell-based; settings: concentration up to 80 μg/ml
Text: as §1

[5] = target: gp41 six-helix bundle formed by N36 and C34 (Human immunodeficiency virus type 1 group M subtype B, UniProt P04578); settings: for inhibitory activity on gp41 six-helix bundle formation (sandwich ELISA): graded concentrations, up to 80 μg/ml, compound preincubated with N36; for inhibition of six-helix bundle formation between N36 and C34 (screening ELISA): single dose 25 μg/ml
Protocol: ELISA for screening for compounds that inhibit the gp41 six-helix bundle formation. A sandwich ELISA as previously described (23) was used to screen for compounds that inhibit the gp41 six-helix bundle formation. Briefly, peptide N36 (2 μM) was pre-incubated with a test compound at the indicated concentrations at 37° C. for 30 min, followed by addition of C34 (2 μM). In the control experiments, N36 was pre-incubated with C34 at 37° C. for 30 min, followed by addition of the test compound. After incubation at 37° C. for 30 min, the mixture was added to wells of a 96-well polystyrene plate (Costar, Corning Inc., Corning, N.Y.) which were precoated with IgG (2 μg/ml) purified from rabbit antisera directed against the N36/C34 mixture. […] Absorbance at 450 nm was measured using an ELISA reader (Ultra 384, Tecan, Research Triangle Park, N.C.). The percent inhibition by the compounds was calculated as previously described (18) and the concentration for 50% inhibition (IC50) was calculated using the software designated Calcusyn (7), kindly provided by Dr. T. C. Chou (Sloan-Kettering Cancer Center, New York, N.Y.).

[6] = system: MT-2 & H9/HIV-1IIIB (clade B, X4); assay: cell-cell fusion, dye transfer assay; assay type: cell-based; settings: H9/HIV-1IIIB with MT-2 cells
Protocol: Inhibition of cell-cell fusion. A dye transfer assay was used for detection of HIV-1 mediated cell fusion as previously described (21, 24, 34). H9/HIV-1IIIB cells were labeled with a fluorescent reagent, Calcein-AM (Molecular Probes, Inc., Eugene, Oreg.) and then incubated with MT-2 cells (ratio=1:5) in 96-well plates at 37° C. for 2 hrs in the presence or absence of compounds tested. The fused and unfused Cacein-labeled HIV-1-infected cells were counted under an inverted fluorescence microscope (Zeiss, Germany) with an eyepiece micrometer disc. The percentage of inhibition of cell fusion and the IC50 values were calculated as previously described (21).

Sequence of gp41 six-helix bundle formed by N36 and C34 (P04578 546-581): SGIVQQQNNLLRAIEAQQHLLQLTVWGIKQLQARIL
T2 sequence (P61073 whole entry): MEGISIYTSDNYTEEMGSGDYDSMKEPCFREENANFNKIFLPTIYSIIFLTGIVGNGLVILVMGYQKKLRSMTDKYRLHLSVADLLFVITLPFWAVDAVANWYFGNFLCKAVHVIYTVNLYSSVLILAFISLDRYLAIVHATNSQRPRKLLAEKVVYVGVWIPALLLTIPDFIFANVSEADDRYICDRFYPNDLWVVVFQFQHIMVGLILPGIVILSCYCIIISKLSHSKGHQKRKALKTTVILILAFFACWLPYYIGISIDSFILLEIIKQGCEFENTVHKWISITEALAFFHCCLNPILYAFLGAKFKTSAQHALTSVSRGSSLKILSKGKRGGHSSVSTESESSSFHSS

CN1C(=O)[C@@H](c2cc(Cl)c(O)c(Cl)c2)NC(=O)[C@@H]2NC(=O)[C@@H](c3cc(Cl)c(O)c(Cl)c3)NC(=O)[C@H](NC(=O)C(=O)c3cc(Cl)c(O)c(Cl)c3)Cc3c[nH]c4c(cccc34)-c3cc2cc(c3O)Oc2ccc(cc2)C[C@H]1C(=O)N[C@@H](C(=O)O)c1ccc(O)cc1 [chloropeptin, reference compound]
inhibition of gp120-CD4 binding (gp120-CD4 binding): markedly inhibited

[Tyr-5,12, Lys-7]polyphemusin II [Example T22, reference compound]
inhibition of 12G5 binding to U373-MAGI-CXCR4CEM cells (CXCR4): significantly inhibited

Cc1cn([C@H]2C[C@H](N=[N+]=[N-])[C@@H](CO)O2)c(=O)[nH]c1=O [AZT, reference compound]
inhibition of HIV-1 replication, time of addition (HIV-1IIIB [1]): still effective

Clc1ccc(-n2cccc2)cc1 [NB-178, reference compound]
inhibitory activity on virus-cell fusion [2]: no inhibitory activity | inhibition of HIV-1 mediated syncytium formation [3]: no inhibitory activity | inhibitory activity on HIV-1IIIB replication (HIV-1IIIB [4]): no inhibitory activity | inhibitory activity on gp41 six-helix bundle formation (sandwich ELISA) [5]: no inhibitory activity | inhibition of six-helix bundle formation between N36 and C34 (screening ELISA) [5]: no inhibitory activity | inhibitory activity on cell-cell fusion [6]: no inhibitory activity

Cc1ccc(C)n1-c1cccc(O)c1 [NB-177, reference compound]
inhibitory activity on virus-cell fusion [2]: no inhibitory activity | inhibition of HIV-1 mediated syncytium formation [3]: no inhibitory activity | inhibitory activity on HIV-1IIIB replication (HIV-1IIIB [4]): no inhibitory activity | inhibitory activity on gp41 six-helix bundle formation (sandwich ELISA) [5]: no inhibitory activity | inhibition of six-helix bundle formation between N36 and C34 (screening ELISA) [5]: no inhibitory activity | inhibitory activity on cell-cell fusion [6]: no inhibitory activity
